Calls of active or inactive are those of the source. How the calls were made is not given here.
Tested on: CCRIS mutagenicity, Ames/micronucleus/aberration tests
Assay: CCRIS mutagenicity studies
[1] = Test System: AMES SALMONELLA TYPHIMURIUM, Strain/Indicator: TA98, Metabolic Activation: NONE, Method: STANDARD PLATE
[2] = Test System: AMES SALMONELLA TYPHIMURIUM, Strain/Indicator: TA98, Metabolic Activation: RAT, LIVER, S-9, AROCLOR 1254, Method: STANDARD PLATE
[3] = Test System: AMES SALMONELLA TYPHIMURIUM, Strain/Indicator: TA98, Metabolic Activation: NONE, Method: PREINCUBATION
[4] = Test System: AMES SALMONELLA TYPHIMURIUM, Strain/Indicator: TA100, Metabolic Activation: NONE, Method: PREINCUBATION
[5] = Test System: AMES SALMONELLA TYPHIMURIUM, Strain/Indicator: TA100, Metabolic Activation: NONE, Method: STANDARD PLATE
[6] = Test System: AMES SALMONELLA TYPHIMURIUM, Strain/Indicator: TA100, Metabolic Activation: RAT, LIVER, S-9, AROCLOR 1254, Method: STANDARD PLATE

For `Cc1cc2c3ccccc3ccc2c2ccccc12`, the mutagenic call (Test System: AMES SALMONELLA TYPHIMURIUM, Strain/Indicator: TA98, Metabolic Activation: RAT, LIVER, CYTOSOL, AROCLOR 1254, Method: STANDARD PLATE) was “inactive; negative”, the mutagenic call (Test System: AMES SALMONELLA TYPHIMURIUM, Strain/Indicator: TA98, Metabolic Activation: RAT, LIVER, MICROSOMES, AROCLOR 1254, Method: STANDARD PLATE) was “inactive; negative” and the mutagenic call (Test System: AMES SALMONELLA TYPHIMURIUM, Strain/Indicator: TA100, Metabolic Activation: RAT, LIVER, MICROSOMES, 6-METHYLCHRYSENE, Method: STANDARD PLATE) was “inactive; negative”. The mutagenic call (Test System: AMES SALMONELLA TYPHIMURIUM, Strain/Indicator: TA100, Metabolic Activation: RAT, LIVER, MICROSOMES, AROCLOR 1254, Method: STANDARD PLATE) was “inactive; negative” and the mutagenic call (Test System: AMES SALMONELLA TYPHIMURIUM, Strain/Indicator: TA100, Metabolic Activation: RAT, LIVER, MICROSOMES, Method: STANDARD PLATE) was “inactive; negative”.

For `C1=CC2OC2c2ccc3c4c5c(cccc5cc3c21)C=C4` (stereo unspecified), the mutagenic call [1] was “inactive; negative”, the mutagenic call (Test System: AMES SALMONELLA TYPHIMURIUM, Strain/Indicator: TA98, Metabolic Activation: RAT, LIVER, S-9, AROCLOR 1254 (0.4, 0.8, 1.15 OR 1.5 MG/PLATE), Method: STANDARD PLATE) was “active; positive” and the mutagenic call [2] was “active; positive”.

For `c1ccc2c(c1)-c1ccc3ccccc3c1C1OC21` (stereo unspecified), the mutagenic call [3] was “active; positive”, the mutagenic call (Test System: AMES SALMONELLA TYPHIMURIUM, Strain/Indicator: TA98, Metabolic Activation: NONE, Method: PREINCUBATION (KCL-CONTAINING MEDIUM)) was “active; positive” and the mutagenic call (Test System: AMES SALMONELLA TYPHIMURIUM, Strain/Indicator: TA98, Metabolic Activation: NONE, Method: PREINCUBATION (KCL-FREE MEDIUM)) was “active; positive”. The mutagenic call [4] was “active; positive”, the mutagenic call (Test System: AMES SALMONELLA TYPHIMURIUM, Strain/Indicator: TA100, Metabolic Activation: NONE, Method: PREINCUBATION (KCL-CONTAINING OR KCL-FREE MEDIA)) was “active; positive” and the mutagenic call [5] was “active; positive”. The mutagenic call [6] was “inactive; negative”, the mutagenic call (Test System: AMES SALMONELLA TYPHIMURIUM, Strain/Indicator: TA1537, Metabolic Activation: NONE, Method: STANDARD PLATE) was “active; positive” and the mutagenic call (Test System: CHINESE HAMSTER V-79, Strain/Indicator: V-79/6-THIOGUANINE, Metabolic Activation: NONE, Method: STANDARD PLATE) was “active; positive”.

For `O.O.O.O=C([O-])COc1ccccc1.O=C([O-])COc1ccccc1.[Cu+2]`, the mutagenic call (Test System: AMES SALMONELLA TYPHIMURIUM, Strain/Indicator: TA97, Metabolic Activation: NONE, Method: PREINCUBATION) was “inactive; negative”, the mutagenic call (Test System: AMES SALMONELLA TYPHIMURIUM, Strain/Indicator: TA97, Metabolic Activation: RAT, LIVER, S-9, AROCLOR 1254, Method: PREINCUBATION) was “inactive; negative” and the mutagenic call [4] was “inactive; negative”. The mutagenic call (Test System: AMES SALMONELLA TYPHIMURIUM, Strain/Indicator: TA100, Metabolic Activation: RAT, LIVER, S-9, AROCLOR 1254, Method: PREINCUBATION) was “inactive; negative”, the mutagenic call (Test System: AMES SALMONELLA TYPHIMURIUM, Strain/Indicator: TA102, Metabolic Activation: NONE, Method: PREINCUBATION) was “inactive; negative” and the mutagenic call (Test System: AMES SALMONELLA TYPHIMURIUM, Strain/Indicator: TA102, Metabolic Activation: RAT, LIVER, S-9, AROCLOR 1254, Method: PREINCUBATION) was “inactive; negative”.

For `C=C(C)c1ccc(C)c2ccc(CO)c-2c1`, the mutagenic call [1] was “inactive; negative”, the mutagenic call [2] was “active; positive” and the mutagenic call [5] was “inactive; negative”. The mutagenic call [6] was “active; positive”.

For `O=[N+]([O-])c1ccc(Br)c([N+](=O)[O-])c1`, the mutagenic call (Test System: AMES SALMONELLA TYPHIMURIUM, Strain/Indicator: TA98(1,8-DNP6), Metabolic Activation: NONE, Method: PREINCUBATION) was “active; positive”, the mutagenic call (Test System: AMES SALMONELLA TYPHIMURIUM, Strain/Indicator: TA98(NR), Metabolic Activation: NONE, Method: PREINCUBATION) was “active; positive” and the mutagenic call [3] was “active; positive”. For the same compound, the mutagenic call (Test System: AMES SALMONELLA TYPHIMURIUM, Strain/Indicator: TA100(NR), Metabolic Activation: NONE, Method: PREINCUBATION) was “active; positive”, the mutagenic call (Test System: AMES SALMONELLA TYPHIMURIUM, Strain/Indicator: TA100/GSH-, Metabolic Activation: NONE, Method: PREINCUBATION) was “active; positive” and the mutagenic call [4] was “active; positive”.

With `NC(=O)/N=N/C(N)=O` the mutagenic call (Test System: AMES SALMONELLA TYPHIMURIUM, Strain/Indicator: TA98, Metabolic Activation: HAMSTER, LIVER, S-9, AROCLOR 1254, Method: STANDARD PLATE) was “inactive; negative”, the mutagenic call [1] was “inactive; negative” and the mutagenic call [2] was “inactive; negative”. The mutagenic call (Test System: AMES SALMONELLA TYPHIMURIUM, Strain/Indicator: TA100, Metabolic Activation: HAMSTER, LIVER, S-9, AROCLOR 1254, Method: STANDARD PLATE) was “active; positive”, the mutagenic call [5] was “active; positive” and the mutagenic call [6] was “active; positive”. For the same compound, the mutagenic call (Test System: MOUSE LYMPHOMA, Strain/Indicator: L5178Y (TK+/TK-), Metabolic Activation: NONE, Method: SUSPENSION/PLATE) was “inactive; negative. reevaluation of results: inconclusive” and the mutagenic call (Test System: MOUSE LYMPHOMA, Strain/Indicator: L5178Y (TK+/TK-), Metabolic Activation: RAT, LIVER, S-9, AROCLOR 1254, Method: SUSPENSION/PLATE) was “inactive; negative. reevaluation of results: negative”.

Source: PubChem BioAssay AID1259407 (Chemical Carcinogenesis Research Information System (CCRIS), 2018)
